In patent US6620844B2, “Method for reducing blood insulin levels by reducing in vivo cathepsin L activity” (NewMillennium Pharmaceutical, Inc., priority 2001, dated 2003):
pKi: −log10 of the molar value. Each block holds one molecule with its values, some of them ahead of it. Non-standard residues stand in square brackets, D forms with d. Residues, ends and D or L forms follow the SMILES beside them. *: point of attachment. Cbz = O=C(OCc1ccccc1)*

Assays:
cathepsin B [1] = molecular target: T1, cathepsin B (Mus musculus, UniProt P10605); assay: Cysteine protease active site labeling in mouse peritoneal macrophages: cathepsin B; assay type: cell-based
T1 construct: endogenous in cells; host or cells: thioglycolate-elicited mouse peritoneal macrophages
T1 sequence (P10605 80-333 limits assumed): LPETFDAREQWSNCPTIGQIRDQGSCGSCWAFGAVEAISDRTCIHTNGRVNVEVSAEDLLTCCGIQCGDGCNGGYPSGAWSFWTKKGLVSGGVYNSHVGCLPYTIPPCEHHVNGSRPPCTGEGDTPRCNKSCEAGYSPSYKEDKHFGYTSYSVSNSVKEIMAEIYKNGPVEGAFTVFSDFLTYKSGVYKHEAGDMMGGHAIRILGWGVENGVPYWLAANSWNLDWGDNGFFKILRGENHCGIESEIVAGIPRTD
Protocol: (§1) FIG. 1. Cysteine protease inhibition profile by synthetic inhibitors in mouse peritoneal macrophages. [^125I]-Z-Tyr-Ala-CHN2-labeled mouse peritoneal macrophages were lysed and separated onto 12% SDS-PAGE to visualize labeled active cathepsins. Doses and inhibitors used were all indicated.
(§2) Mouse peritoneal macrophages were generated by injecting mice with thioglycolate as described in Shi et al. (2000) J. Exp. Med. 191:[…]. After 3-4 days of incubation, peritoneal microphages were washed out using Tris-EDTA buffers containing 6 mM EDTA (pH 8.0). Cells were then seeded onto 24-well plates in DMEM with 10% FBS till complete spread. After cells were attached to the plates, different doses of inhibitors were added. After 2-3 hours of incubation, cells were labeled with [^125I]-Z-Tyr-Ala-CHN2 overnight at 37° C. to detect intracellular active cysteine proteases. Cells were lysed into 1× reducing protein sample buffer and separated onto 12% SDS-PAGE.
(§3) First, the synthetic small molecule compounds were tested for their selectivity toward different forms of cathepsin. Mouse peritoneal macrophages were cultured in the presence of selective inhibitors and cysteine protease active site labeling probe [^125I]-Z-Tyr-Ala-CHN2 (Sukhova et al., supra). […] In contrast, other inhibitors used had no effect on cathepsin B activity. […] Therefore, these inhibitors can be utilized to test if the aforementioned cathepsins play roles in the breakdown of insulin receptor (IR) or IR turnover.

cathepsin L [2] = molecular target: T2, cathepsin L (Mus musculus, UniProt P06797); assay: Cysteine protease active site labeling in mouse peritoneal macrophages: cathepsin L; assay type: cell-based; conditions: mouse peritoneal macrophages
T2 construct: endogenous in cells; host or cells: thioglycolate-elicited mouse peritoneal macrophages
T2 sequence (P06797 114-334): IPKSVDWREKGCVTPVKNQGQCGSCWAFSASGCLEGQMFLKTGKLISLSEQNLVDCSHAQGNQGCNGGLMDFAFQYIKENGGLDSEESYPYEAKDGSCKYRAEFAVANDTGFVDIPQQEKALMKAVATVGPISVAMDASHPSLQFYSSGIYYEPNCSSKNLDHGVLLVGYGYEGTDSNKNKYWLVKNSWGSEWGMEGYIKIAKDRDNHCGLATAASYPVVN
Protocol: as §1, §2, §3

cathepsin K [3] = molecular target: T3, cathepsin K (Mus musculus, UniProt P55097); assay: Cysteine protease active site labeling in mouse peritoneal macrophages: cathepsin K; assay type: cell-based
T3 construct: endogenous in cells; host or cells: thioglycolate-elicited mouse peritoneal macrophages
T3 sequence (P55097 115-329): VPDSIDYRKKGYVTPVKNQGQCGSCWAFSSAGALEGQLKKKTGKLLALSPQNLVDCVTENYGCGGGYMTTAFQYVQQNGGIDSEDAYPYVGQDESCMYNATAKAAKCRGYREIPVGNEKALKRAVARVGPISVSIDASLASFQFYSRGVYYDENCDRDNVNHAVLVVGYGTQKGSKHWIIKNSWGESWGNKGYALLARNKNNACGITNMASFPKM
Protocol: as §1, §2, §3

[4] = system: insulin receptor β subunit; assay: Insulin receptor turnover in human preadipocytes, Western blot; assay type: cell-based; conditions: for levels of 95 kDa IR β subunit and its precursor: human preadipocytes
Protocol: FIG. 2. […] Human preadipocytes were incubated with and without inhibitors indicated at different doses, lysed, separated onto 7% SDS-PAGE, and probed with goat anti-human insulin receptor β-subunit polyclonal antibodies. Both mature β subunit and its precursor were indicated.
(§4) Human preadipocytes were initially cultured in MSCGM medium (BioWhitaker) at 37° C. and 5% CO2 for 7 to 12 days with 3-4 changes of media till complete confluence. Non-induced cells were kept in adipogenesis maintenance media containing 0.01 mg/ml of insulin, 0.05 units/ml of penicillin, 0.05 μg/ml of streptomycin, and 10% fetal bovine serum. To induce adipogenesis, complete confluent cells were cultured in adipogenesis induction medium containing 1 μM dexamethasone, 0.2 mM indomethacin, 0.01 mg/ml insulin, 0.5 mM 3-isobutyl-1-methyl-xanthine, 0.05 units/ml of penicillin, 0.05 μg/ml of streptomycin, and 10% fetal bovine serum in the presence and absence of protease inhibitors for 3 days followed by three days of culture in maintenance media. After three cycles of induction and maintenance, cells were cultured in maintenance media for additional 7 days with two changes of fresh media.
(§5) After differentiation, cells were collected, and lysed into 1×RIPA buffer. Protein concentrations were determined using Bio-Rad Dc protein assay system according to the manufacturer (Bio-Rad, Hercules, Calif.). Equal amount of proteins were separated on 7% SDS-PAGE for detecting IR and IGF-1R, 12% SDS-PAGE for detecting cathepsins S, K, and L antigens. Both IR and IGF-1R primary polyclonal antibodies were raised from goat and all cathepsin antibodies were polyclonal antibodies raised from rabbit. The corresponding HRP-conjugated secondary antibodies were used for detections.
To test which cathepsin is involved in the IR turnover, human preadipocytes (BioWhittaker, Walkersville, Md.) were induced to become adipocytes in the presence and absence of inhibitors. Differentiated adipocytes expressed more IR than controls as previously reported. Pederson et al. (2000) Biochem. Biophys. Res. Commun. 276:162-168. Cathepsin B inhibitor (CA 074, 10 μM) and catepsin S inhibitor (CLIK 060, 2 μM) had no effect on either IR turnover or differentiation (FIGS. 2). […] The same is true when the blot was tested with insulin like growth factor I receptor (IGF-IR) antibodies (FIG. 3).

human preadipocytes = assay: Human preadipocyte adipogenesis, oil-red staining; assay type: cell-based; conditions: human preadipocytes; for inhibition of adipogenesis / differentiation: 10 μM
Protocol: FIG. 6. Oil-red staining of human preadipocytes and adipocytes.
as §4
This hypothesis is further confirmed by oil-red staining of CLIK 148 or 195 treated preadipocytes (FIG. 6). In addition, inhibition of adiogenesis by these two inhibitors is dose dependent. Less than 50% of adipogenesis was blocked by 1 μM of such inhibitors. […] In contrast, 1 μM of CLIK 060, 1 or 10 μM of CA 074 had no effect on adipogenesis (data not shown). Therefore, these observations indicate that cathepsin L appears to play a more critical role than cathepsins S and K in adipogenesis by controlling insulin/IR complex turnover.

cathepsin S [5] = molecular target: cathepsin S (Mus musculus, UniProt O70370); assay: Cysteine protease active site labeling in mouse peritoneal macrophages: cathepsin S; assay type: cell-based; design: endogenous in cells; host or cells: thioglycolate-elicited mouse peritoneal macrophages; conditions: 2 μM
Protocol: as §1, §2
First, the synthetic small molecule compounds were tested for their selectivity toward different forms of cathepsin. Mouse peritoneal macrophages were cultured in the presence of selective inhibitors and cysteine protease active site labeling probe [^125I]-Z-Tyr-Ala-CHN2 (Sukhova et al., supra). […] In contrast, other inhibitors used had no effect on cathepsin B activity. […]

[6] = system: insulin like growth factor I receptor (IGF-IR); assay: IGF-IR levels in human preadipocytes, Western blot; assay type: cell-based
Protocol: FIG. 3. […] Cells were treated as in FIG. 2. Western blot analysis was performed using goat anti-human IGF-1R polyclonal antibodies.
as §4, §5
To test which cathepsin is involved in the IR turnover, human preadipocytes (BioWhittaker, Walkersville, Md.) were induced to become adipocytes in the presence and absence of inhibitors. Differentiated adipocytes expressed more IR than controls as previously reported. Pederson et al. (2000) Biochem. Biophys. Res. Commun. 276:162-168. Cathepsin B inhibitor (CA 074, 10 μM) and catepsin S inhibitor (CLIK 060, 2 μM) had no effect on either IR turnover or differentiation (FIGS. 2). […]

[7] = system: CCAAT/enhancer-binding protein-α (C/EBP-α); assay: C/EBP-α levels in human preadipocytes, Western blot; assay type: cell-based; conditions: human preadipocytes differentiated with inhibitor, FIG. 4
Protocol: FIG. 4. Inhibition of cathepsin L blocked the expression of CCAAT/enhancer-binding protein. Human preadipocytes were differentiated as in FIG. 2. A 10% gel was used to perform Western blot analysis using goat anti-human C/EBP-α polyclonal antibodies and the blot was detected using the corresponding HRP-conjugated secondary antibodies.
as §4
(§6) To evaluate the cell differentiation levels affected by aforementioned inhibitors, the levels of transcription factors CCAAT/enhancer-binding protein-α (C/EBP-α) as well as peroxisome proliferator-activated receptor-γ (PPAR-γ) from cells treated with and without inhibitors were measured. Both C/EBP-α and PPAR-γ are important adipocyte determination factors. Wu et al. (1999) Mol. Cell. 3:151-158; Tanaka et al. (1997) EMBO J. 16:7432-7443; and Tontonoz et al. (1994) Cell 79:1147-1156.

[8] = system: peroxisome proliferator-activated receptor-γ (PPAR-γ); assay: PPAR-γ levels in human preadipocytes, Western blot; assay type: cell-based; conditions: human preadipocytes differentiated with inhibitor, FIG. 5
Protocol: FIG. 5. Inhibition of cathepsin L blocked the expression of PPAR-γ. Human preadipocytes were used and Western blot analysis was performed as in FIG. 4 instead of using mouse anti-human PPAR-γ monoclonal antibodies as the primary antibodies.
as §4, §6

Cathepsin S [9] = molecular target: Cathepsin S (Homo sapiens, UniProt P25774); conditions: cited from earlier work
Chain of Cathepsin S (P25774 115-331, species assumed): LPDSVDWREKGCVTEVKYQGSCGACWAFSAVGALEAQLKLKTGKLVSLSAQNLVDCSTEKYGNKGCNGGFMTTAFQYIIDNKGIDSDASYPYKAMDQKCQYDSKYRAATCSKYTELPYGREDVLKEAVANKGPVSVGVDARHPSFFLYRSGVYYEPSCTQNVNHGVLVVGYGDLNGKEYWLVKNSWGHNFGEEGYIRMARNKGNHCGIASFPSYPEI

Cathepsin B [10] = molecular target: Cathepsin B (Homo sapiens, UniProt P07858); conditions: cited from earlier work
Cathepsin L [11] = molecular target: Cathepsin L (Homo sapiens, UniProt P07711); conditions: cited from earlier work
Chain of Cathepsin L (P07711 114-333, species assumed): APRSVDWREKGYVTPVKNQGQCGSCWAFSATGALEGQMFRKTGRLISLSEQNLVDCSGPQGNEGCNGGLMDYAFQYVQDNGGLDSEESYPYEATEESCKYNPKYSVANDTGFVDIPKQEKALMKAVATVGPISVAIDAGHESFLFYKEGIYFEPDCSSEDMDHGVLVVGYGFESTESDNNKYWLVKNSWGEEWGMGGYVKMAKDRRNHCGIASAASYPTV

Cathepsin K [12] = molecular target: T4, Cathepsin K (Homo sapiens, UniProt P43235); conditions: cited from earlier work
T4 sequence (P43235 115-329): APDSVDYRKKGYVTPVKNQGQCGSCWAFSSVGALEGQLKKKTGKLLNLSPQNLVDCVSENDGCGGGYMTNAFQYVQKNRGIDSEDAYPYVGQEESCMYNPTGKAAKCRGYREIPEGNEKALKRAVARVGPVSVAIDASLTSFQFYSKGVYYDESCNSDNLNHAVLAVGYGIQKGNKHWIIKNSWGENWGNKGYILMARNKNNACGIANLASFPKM

cathepsin B activity (active site labeling) (cathepsin B [1]; 2 μM): completely blocked
cathepsin L activity (active site labeling) (cathepsin L [2]; 2 μM): remain intact
cathepsin K activity (active site labeling) (cathepsin K [3]; 2 μM): remain intact
cathepsin S activity (active site labeling) (cathepsin S [5]): remain intact
Structure (SMILES): CCCNC(=O)[C@H]1O[C@@H]1C(=O)N[C@H](C(=O)N1CCC[C@H]1C(=O)O)[C@@H](C)CC [CA 074]
IR turnover ([4]; 10 μM, human preadipocytes induced to adipocytes): no effect
effect on adipogenesis (human preadipocytes; 1 μM): no effect
inhibition of adipogenesis / differentiation (human preadipocytes): no effect
effect on adipogenesis (human preadipocytes; 10-20 μM): no effect

cathepsin B activity (active site labeling) (cathepsin B [1]; 10 μM): not
cathepsin L activity (active site labeling) (cathepsin L [2]; 10 μM): completely inhibited
cathepsin K activity (active site labeling) (cathepsin K [3]; 10 μM): not
Structure (SMILES): CN(C)C(=O)[C@H](Cc1ccccc1)NC(=O)[C@H]1O[C@@H]1C(=O)N[C@@H](Cc1ccccc1)C(=O)N(C)C (relative stereo) [CLIK 195, L-(+)-(2S, 3S)-Bis-(Na-amino-L-phenylalaninedimethylamide)-trans-epoxysuccinamide]
levels of 95 kDa IR β subunit and its precursor ([4]; 10 μM): increased levels
levels of IGF-IR β subunit and its precursor (the same as for IR) ([6]; 10 μM): increased levels
accumulation of 50 kDa C/EBP-α [7]: blocking the accumulation
accumulation of 50 kDa PPAR-γ [8]: blocking the accumulation
inhibition of adipogenesis / differentiation (human preadipocytes): complete inhibition
inhibition of adipogenesis / differentiation (human preadipocytes; listed as 195): completely blocked

Structure (SMILES): CCOC(=O)[C@H]1O[C@@H]1C(=O)N[C@@H](CC(C)C)C(=O)NCCC(C)C [E64d]
levels of 95 kDa IR β subunit and its precursor ([4]; 20 μM): increased levels
levels of IGF-IR β subunit and its precursor (the same as for IR) ([6]; 20 μM): increased levels
accumulation of 50 kDa C/EBP-α [7]: blocking the accumulation
accumulation of 50 kDa PPAR-γ [8]: blocking the accumulation

Structure (SMILES): CC(C)CC(NC(=O)[C@@H](Cc1ccccc1)NC(=O)OCc1ccccc1)C(=O)C=O (some centres unmarked)
pKi (Cathepsin S [9]): 9.73
pKi (Cathepsin B [10]): 9.12

Structure (SMILES): CC(C)C[C@H](NC(=O)N1CCOCC1)C(=O)N[C@H](/C=C/S(=O)(=O)c1ccccc1)CCc1ccccc1
pKi (Cathepsin S [9]): 8.30

Structure (SMILES): CC(C)CC(NC(=O)[C@H](CC(C)C)NC(=O)OCc1ccccc1)C(=O)COCc1ccc(-c2ccccc2)cc1 (some centres unmarked)
pKi (Cathepsin B [10]): 5.88
pKi (Cathepsin L [11]): 7.20
pKi (Cathepsin K [12]): 7.66

Structure (SMILES): O=C(N[C@@H](Cc1ccc2ccccc2c1)C(=O)N[C@H]1CCCN(S(=O)(=O)c2ccccn2)CC1=O)c1cccc2ccccc12
pKi (Cathepsin K [12]): 6.30 to 6.38

Structure (SMILES): O=C[C@@H](Cc1ccc(O)cc1)NC(=O)[C@H](Cc1ccccc1)NC(=O)OCc1ccccc1 (Cbz-Phe-[dY]-aldehyde)
Cathepsin L selectivity, in words (Cathepsin L [11]): Cathepsin L. Selective (Woo et al. Bioorg. Med. Chem. 5, 1501, 1995)
